According to patent US20260356819A1, “OXOISOINDOLINYL-SUBSTITUTED […] DERIVATIVE AND USE THEREOF” (GLUETACS THERAPEUTICS (SHANGHAI) CO., LTD., priority 2023, published 2026):

Assays:
Type in all cases: cell-based
Conditions in all cases: compounds at 50 nM and 500 nM
CK1α = biological target: T1, CK1α (Homo sapiens, UniProt P48729+Q96SW2); assay: Western blot degradation of CK1α in hPBMCs (24 h)
T1 construct: The supernatant was aspirated as the extracted total cell protein; endogenous in cells; host or cells: human peripheral blood mononuclear cells (hPBMCs)
Summary of the method: (§1)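 hPBMCs (1×10^6 cells/mL) exposed to compound at 50 nM and 500 nM for 24 h, DMSO as reference. Lysates run on SDS-PAGE and immunoblotted. Band grayscale normalized to internal control gives % protein remaining; DC50 from fitted concentration-response of band intensity versus DMSO.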

IKZF3 = biological target: T2, IKZF3 (Homo sapiens, UniProt Q96SW2+Q9UKT9); assay: Western blot degradation of IKZF3 in hPBMCs (24 h)
T2 construct: The supernatant was aspirated as the extracted total cell protein; endogenous in cells; host or cells: human peripheral blood mononuclear cells (hPBMCs)
Summary of the method: as §1

WEE1 = biological target: T3, WEE1 (Homo sapiens, UniProt P30291+Q96SW2); assay: Western blot degradation of WEE1 in hPBMCs (24 h)
T3 construct: The supernatant was aspirated as the extracted total cell protein; endogenous in cells; host or cells: human peripheral blood mononuclear cells (hPBMCs)
Summary of the method: as §1

IKZF1 = biological target: T4, IKZF1 (Homo sapiens, UniProt Q13422+Q96SW2); assay: Western blot degradation of IKZF1 in hPBMCs (24 h)
T4 construct: The supernatant was aspirated as the extracted total cell protein; endogenous in cells; host or cells: human peripheral blood mononuclear cells (hPBMCs)
Summary of the method: as §1

IKZF2 = biological target: T5, IKZF2 (Homo sapiens, UniProt Q96SW2+Q9UKS7); assay: Western blot degradation of IKZF2 in hPBMCs (24 h)
T5 construct: The supernatant was aspirated as the extracted total cell protein; endogenous in cells; host or cells: human peripheral blood mononuclear cells (hPBMCs)
Summary of the method: as §1

GSPT1 = biological target: T6, GSPT1 (Homo sapiens, UniProt P15170+Q96SW2); assay: Western blot degradation of GSPT1 in hPBMCs (24 h)
T6 construct: The supernatant was aspirated as the extracted total cell protein; endogenous in cells; host or cells: human peripheral blood mononuclear cells (hPBMCs)
Summary of the method: as §1

T5 sequence (Q9UKS7 whole entry): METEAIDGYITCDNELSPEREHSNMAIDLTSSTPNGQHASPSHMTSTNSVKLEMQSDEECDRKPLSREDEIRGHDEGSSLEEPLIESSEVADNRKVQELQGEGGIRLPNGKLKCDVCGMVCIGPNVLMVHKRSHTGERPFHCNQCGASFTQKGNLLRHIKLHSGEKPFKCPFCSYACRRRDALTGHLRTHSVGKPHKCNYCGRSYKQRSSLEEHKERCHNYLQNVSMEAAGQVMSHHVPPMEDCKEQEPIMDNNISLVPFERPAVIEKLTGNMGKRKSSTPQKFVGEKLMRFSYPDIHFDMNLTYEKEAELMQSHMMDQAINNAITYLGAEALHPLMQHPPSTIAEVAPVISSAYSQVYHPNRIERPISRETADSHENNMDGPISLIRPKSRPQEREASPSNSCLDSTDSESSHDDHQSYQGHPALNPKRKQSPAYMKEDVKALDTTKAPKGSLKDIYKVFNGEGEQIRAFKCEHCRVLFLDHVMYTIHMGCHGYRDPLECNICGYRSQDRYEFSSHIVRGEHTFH
T5 sequence (Q96SW2 whole entry): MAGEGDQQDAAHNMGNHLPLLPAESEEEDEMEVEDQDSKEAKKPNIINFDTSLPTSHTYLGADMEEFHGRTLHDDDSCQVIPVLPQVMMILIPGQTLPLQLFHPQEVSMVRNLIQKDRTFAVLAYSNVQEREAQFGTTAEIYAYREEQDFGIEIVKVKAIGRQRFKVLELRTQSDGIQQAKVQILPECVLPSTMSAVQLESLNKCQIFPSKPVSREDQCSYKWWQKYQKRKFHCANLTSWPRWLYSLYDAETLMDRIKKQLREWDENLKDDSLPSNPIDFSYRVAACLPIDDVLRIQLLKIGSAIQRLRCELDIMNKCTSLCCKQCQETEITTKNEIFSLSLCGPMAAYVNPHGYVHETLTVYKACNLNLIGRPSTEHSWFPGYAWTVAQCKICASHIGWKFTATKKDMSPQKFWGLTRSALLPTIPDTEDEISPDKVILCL
T5 sequence (Q16531 whole entry partner): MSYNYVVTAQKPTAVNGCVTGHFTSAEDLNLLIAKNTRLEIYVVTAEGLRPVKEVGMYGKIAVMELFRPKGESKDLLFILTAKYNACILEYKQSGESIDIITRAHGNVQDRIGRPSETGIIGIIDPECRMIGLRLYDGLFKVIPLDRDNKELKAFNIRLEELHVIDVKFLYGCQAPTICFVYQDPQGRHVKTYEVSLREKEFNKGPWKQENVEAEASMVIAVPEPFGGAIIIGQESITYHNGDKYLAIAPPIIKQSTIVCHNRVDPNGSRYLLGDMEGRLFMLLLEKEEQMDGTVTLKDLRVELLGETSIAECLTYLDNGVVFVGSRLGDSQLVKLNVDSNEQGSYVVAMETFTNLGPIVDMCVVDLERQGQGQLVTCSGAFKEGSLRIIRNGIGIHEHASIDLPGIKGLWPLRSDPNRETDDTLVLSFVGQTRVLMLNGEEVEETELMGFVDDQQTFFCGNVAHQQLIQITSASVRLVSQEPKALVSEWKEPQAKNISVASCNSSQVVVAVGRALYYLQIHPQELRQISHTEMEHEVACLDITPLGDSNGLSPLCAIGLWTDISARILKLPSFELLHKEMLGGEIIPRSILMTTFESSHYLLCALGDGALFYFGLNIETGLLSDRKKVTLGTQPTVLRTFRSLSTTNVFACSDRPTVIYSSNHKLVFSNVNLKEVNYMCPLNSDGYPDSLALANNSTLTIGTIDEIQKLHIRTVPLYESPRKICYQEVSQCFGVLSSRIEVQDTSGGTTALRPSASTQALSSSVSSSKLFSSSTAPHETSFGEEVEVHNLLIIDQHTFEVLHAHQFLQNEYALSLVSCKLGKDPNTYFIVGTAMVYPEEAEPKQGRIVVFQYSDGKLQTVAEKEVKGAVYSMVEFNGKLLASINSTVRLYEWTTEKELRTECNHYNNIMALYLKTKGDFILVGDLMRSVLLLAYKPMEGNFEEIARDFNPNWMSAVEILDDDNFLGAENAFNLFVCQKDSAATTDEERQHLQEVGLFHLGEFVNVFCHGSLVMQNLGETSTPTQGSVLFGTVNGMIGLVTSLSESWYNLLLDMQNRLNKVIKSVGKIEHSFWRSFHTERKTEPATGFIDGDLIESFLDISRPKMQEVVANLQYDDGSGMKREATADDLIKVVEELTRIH
T2 sequence (Q9UKT9 whole entry): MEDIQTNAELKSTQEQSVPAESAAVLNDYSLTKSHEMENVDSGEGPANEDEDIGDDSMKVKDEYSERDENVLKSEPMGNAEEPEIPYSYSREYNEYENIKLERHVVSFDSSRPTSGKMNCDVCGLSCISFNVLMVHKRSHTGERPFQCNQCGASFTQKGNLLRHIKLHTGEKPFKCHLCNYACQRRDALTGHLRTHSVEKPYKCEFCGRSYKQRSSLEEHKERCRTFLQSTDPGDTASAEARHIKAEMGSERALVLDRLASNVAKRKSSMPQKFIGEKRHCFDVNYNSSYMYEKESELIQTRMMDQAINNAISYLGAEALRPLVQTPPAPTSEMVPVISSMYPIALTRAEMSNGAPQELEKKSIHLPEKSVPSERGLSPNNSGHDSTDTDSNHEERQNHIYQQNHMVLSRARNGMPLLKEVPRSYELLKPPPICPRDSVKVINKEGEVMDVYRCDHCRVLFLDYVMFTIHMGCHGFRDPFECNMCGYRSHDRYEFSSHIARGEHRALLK
T2 sequence (Q96SW2 whole entry): as the sequence (Q96SW2 whole entry) above
T2 sequence (Q16531 whole entry partner): as the sequence (Q16531 whole entry partner) above
T1 sequence (P48729 whole entry): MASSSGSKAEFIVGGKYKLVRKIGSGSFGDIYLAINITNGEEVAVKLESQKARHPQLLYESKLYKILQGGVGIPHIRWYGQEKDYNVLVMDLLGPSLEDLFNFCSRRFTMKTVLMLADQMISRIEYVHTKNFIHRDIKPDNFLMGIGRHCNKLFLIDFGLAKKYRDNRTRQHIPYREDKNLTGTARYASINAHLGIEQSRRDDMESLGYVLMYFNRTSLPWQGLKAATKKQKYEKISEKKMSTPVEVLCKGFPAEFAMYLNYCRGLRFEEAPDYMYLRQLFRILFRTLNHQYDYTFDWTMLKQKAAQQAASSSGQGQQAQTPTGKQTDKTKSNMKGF
T1 sequence (Q96SW2 whole entry): as the sequence (Q96SW2 whole entry) above
T1 sequence (Q16531 whole entry partner): as the sequence (Q16531 whole entry partner) above
T6 sequence (P15170 whole entry): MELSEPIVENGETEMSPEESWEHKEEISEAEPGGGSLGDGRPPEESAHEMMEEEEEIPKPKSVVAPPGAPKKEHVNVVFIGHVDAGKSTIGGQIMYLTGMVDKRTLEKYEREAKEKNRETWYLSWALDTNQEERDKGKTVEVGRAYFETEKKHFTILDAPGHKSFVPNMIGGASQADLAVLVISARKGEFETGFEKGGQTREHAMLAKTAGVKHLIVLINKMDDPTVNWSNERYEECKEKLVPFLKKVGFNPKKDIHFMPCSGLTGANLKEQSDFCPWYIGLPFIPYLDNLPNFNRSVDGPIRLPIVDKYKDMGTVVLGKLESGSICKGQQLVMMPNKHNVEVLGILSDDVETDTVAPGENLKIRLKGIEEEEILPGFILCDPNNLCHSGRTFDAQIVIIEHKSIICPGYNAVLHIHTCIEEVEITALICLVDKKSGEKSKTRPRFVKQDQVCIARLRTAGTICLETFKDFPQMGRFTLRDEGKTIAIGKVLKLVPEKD
T6 sequence (Q96SW2 whole entry): as the sequence (Q96SW2 whole entry) above
T6 sequence (Q16531 whole entry partner): as the sequence (Q16531 whole entry partner) above
T4 sequence (Q13422 whole entry): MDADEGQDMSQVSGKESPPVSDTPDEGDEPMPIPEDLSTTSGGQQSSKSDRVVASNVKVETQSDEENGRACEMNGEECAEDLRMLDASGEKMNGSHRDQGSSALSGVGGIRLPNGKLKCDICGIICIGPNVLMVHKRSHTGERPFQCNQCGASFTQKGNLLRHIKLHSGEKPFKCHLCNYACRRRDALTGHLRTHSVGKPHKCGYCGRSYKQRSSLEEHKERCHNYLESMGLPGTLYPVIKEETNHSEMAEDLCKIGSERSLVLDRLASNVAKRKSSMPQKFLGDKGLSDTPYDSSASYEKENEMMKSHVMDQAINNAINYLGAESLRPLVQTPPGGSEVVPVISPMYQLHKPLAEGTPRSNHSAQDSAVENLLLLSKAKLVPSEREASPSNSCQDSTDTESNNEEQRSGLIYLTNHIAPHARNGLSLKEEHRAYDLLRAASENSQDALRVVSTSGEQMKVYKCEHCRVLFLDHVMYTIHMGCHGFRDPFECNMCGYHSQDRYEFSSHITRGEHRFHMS
T4 sequence (Q96SW2 whole entry): as the sequence (Q96SW2 whole entry) above
T4 sequence (Q16531 whole entry partner): as the sequence (Q16531 whole entry partner) above

Row | SMILES | CK1α substrate protein remaining % (CK1α) | IKZF3 substrate protein remaining % (IKZF3) | WEE1 substrate protein remaining % (WEE1) | IKZF1 substrate protein remaining % (IKZF1) | IKZF2 substrate protein remaining % (IKZF2) | GSPT1 substrate protein remaining % (GSPT1)
1 | O=C1CCN(N2Cc3cc(CN4CC=C(c5ncc6ccsc6n5)CC4)ccc3C2=O)C(=O)N1 [GT-08438, 1-(1-oxo-5-((4-(thieno[2,3-d]pyrimidin-2-yl)-3,6-dihydropyridin-1(2H)-yl)methyl)isoindolin-2-yl)dihydropyrimidine-2,4(1H,3H)-dione] | B (80%< substrate protein remaining % ≤100%) | A (0% ≤ substrate protein remaining % ≤80%) | A (0% ≤ substrate protein remaining % ≤80%) | A (0% ≤ substrate protein remaining % ≤80%) | B (80%< substrate protein remaining % ≤100%) | A (0% ≤ substrate protein remaining % ≤80%)
2 | O=C1CCN(N2Cc3cc(CN4CCN(c5nc(Cl)nc6c5SCC6)CC4)ccc3C2=O)C(=O)N1 [GT-08439, 1-(5-((4-(2-chloro-6,7-dihydrothieno[3,2-d]pyrimidin-4-yl)piperazin-1-yl)methyl)-1-oxoisoindolin-2-yl)dihydropyrimidine-2,4(1H,3H)-dione] | B (80%< substrate protein remaining % ≤100%) | A (0% ≤ substrate protein remaining % ≤80%) | A (0% ≤ substrate protein remaining % ≤80%) | A (0% ≤ substrate protein remaining % ≤80%) | B (80%< substrate protein remaining % ≤100%) | A (0% ≤ substrate protein remaining % ≤80%)
3 | O=C1CCN(N2Cc3cc(CN4CCN(c5ncnc6ccsc56)CC4)ccc3C2=O)C(=O)N1 [GT-08443, 1-(1-oxo-5-((4-(thieno[3,2-d]pyrimidin-4-yl)piperazin-1-yl)methyl)isoindolin-2-yl)dihydropyrimidine-2,4(1H,3H)-dione] | B (80%< substrate protein remaining % ≤100%) | B (80%< substrate protein remaining % ≤100%) | A (0% ≤ substrate protein remaining % ≤80%) | B (80%< substrate protein remaining % ≤100%) | B (80%< substrate protein remaining % ≤100%) | B (80%< substrate protein remaining % ≤100%)
4 | O=C1CCN(N2Cc3cc(CN4CCN(c5nc(Cl)nc6ccsc56)CC4)ccc3C2=O)C(=O)N1 [GT-08444, 1-(5-((4-(2-chlorothieno[3,2-d]pyrimidin-4-yl)piperazin-1-yl)methyl)-1-oxoisoindolin-2-yl)dihydropyrimidine-2,4(1H,3H)-dione] | B (80%< substrate protein remaining % ≤100%) | B (80%< substrate protein remaining % ≤100%) | A (0% ≤ substrate protein remaining % ≤80%) | B (80%< substrate protein remaining % ≤100%) | B (80%< substrate protein remaining % ≤100%) | B (80%< substrate protein remaining % ≤100%)
5 | O=C1CCN(N2Cc3cc(CN4CCN(c5nc(N6CCOCC6)nc6ccsc56)CC4)ccc3C2=O)C(=O)N1 [GT-08446, 1-(5-((4-(2-morpholinothieno[3,2-d]pyrimidin-4-yl)piperazin-1-yl)methyl)-1-oxoisoindolin-2-yl)dihydropyrimidine-2,4(1H,3H)-dione] | B (80%< substrate protein remaining % ≤100%) | A (0% ≤ substrate protein remaining % ≤80%) | B (80%< substrate protein remaining % ≤100%) | B (80%< substrate protein remaining % ≤100%) | B (80%< substrate protein remaining % ≤100%) | A (0% ≤ substrate protein remaining % ≤80%)
6 | O=C1CCN(N2C(=O)c3ccc(CN4CCN(c5nc(Cl)nc6c5SCC6)CC4)cc3C2=O)C(=O)N1 [GT-08448, 5-((4-(2-chloro-6,7-dihydrothieno[3,2-d]pyrimidin-4-yl)piperazin-1-yl)methyl)-2-(2,4-dioxotetrahydropyrimidin-1(2H)-yl)isoindoline-1,3-dione] | B (80%< substrate protein remaining % ≤100%) | B (80%< substrate protein remaining % ≤100%) | B (80%< substrate protein remaining % ≤100%) | B (80%< substrate protein remaining % ≤100%) | B (80%< substrate protein remaining % ≤100%) | A (0% ≤ substrate protein remaining % ≤80%)
7 | O=C1CCN(N2C(=O)c3ccc(CN4CCN(c5nc(N6CCOCC6)nc6c5SCC6)CC4)cc3C2=O)C(=O)N1 [GT-08450, 2-(2,4-dioxotetrahydropyrimidin-1(2H)-yl)-5-((4-(2-morpholino-6,7-dihydrothieno[3,2-d]pyrimidin-4-yl)piperazin-1-yl)methyl)isoindoline-1,3-dione] | B (80%< substrate protein remaining % ≤100%) | B (80%< substrate protein remaining % ≤100%) | B (80%< substrate protein remaining % ≤100%) | B (80%< substrate protein remaining % ≤100%) | B (80%< substrate protein remaining % ≤100%) | A (0% ≤ substrate protein remaining % ≤80%)
8 | O=C1CCN(N2C(=O)c3ccc(CN4CCN(c5nc6c(c(N7CCOCC7)n5)SCC6)CC4)cc3C2=O)C(=O)N1 [GT-08451, 2-(2,4-dioxotetrahydropyrimidin-1(2H)-yl)-5-((4-(4-morpholino-6,7-dihydrothieno[3,2-d]pyrimidin-2-yl)piperazin-1-yl)methyl)isoindoline-1,3-dione] | A (0% ≤ substrate protein remaining % ≤80%) | A (0% ≤ substrate protein remaining % ≤80%) | B (80%< substrate protein remaining % ≤100%) | B (80%< substrate protein remaining % ≤100%) | B (80%< substrate protein remaining % ≤100%) | B (80%< substrate protein remaining % ≤100%)
9 | O=C1CCN(N2C(=O)c3ccc(CN4CCN(c5ncnc6ccsc56)CC4)cc3C2=O)C(=O)N1 [GT-08452, 2-(2,4-dioxotetrahydropyrimidin-1(2H)-yl)-5-((4-(thieno[3,2-d]pyrimidin-4-yl)piperazin-1-yl)methyl)isoindoline-1,3-dione] | A (0% ≤ substrate protein remaining % ≤80%) | A (0% ≤ substrate protein remaining % ≤80%) | A (0% ≤ substrate protein remaining % ≤80%) | A (0% ≤ substrate protein remaining % ≤80%) | B (80%< substrate protein remaining % ≤100%) | B (80%< substrate protein remaining % ≤100%)
